# Experimental data: US9732032B2, “3-aminocyclopentane carboxamide derivatives” (Merck Patent GmbH, priority 2012, dated 2017)
# Target: T1, human recombinant full-length fatty acid synthase (FASN) (Homo sapiens, UniProt P49327)
# T1 construct: human recombinant full-length fatty acid synthase; made in house; host or cells: SF9 cells
# Test: Biochemical activity testing of human fatty acid synthase FASN (NADPH fluorescence intensity assay)
# Conditions: NADPH fluorescence decrease (ex 340 nm / em 460 nm), 30 minutes at room temperature, read-out: IC50 FASN (enzyme assay)
# From the text: aq (aqueous), h (hour), g (gram), L (liter), mg (milligram), MHz (Megahertz), (melting point), eq (equivalent), mL (milliliter), L (microliter), ACN (acetonitrile), AcOH (acetic acid), CDCl3 (deuterated chloroform), CD3OD (deuterated methanol), CH3CN (acetonitrile), c-hex (cyclohexane), DCC (dicyclohexyl carbodiimide), DCM (dichloromethane), DIC (diisopropyl carbodiimide), DIEA (diisopropylethyl-amine), DMF (dimethylformamide), DMSO (dimethylsulfoxide), DMSO-d6 (deuterated dimethylsulfoxide), EDC (1-(3-dimethyl-amino-propyl)-3-ethylcarbodiimide), ESI (Electro-spray ionization), EtOAc (ethyl acetate), Et2O (diethyl ether), EtOH (ethanol), HATU (dimethylamino-([1,2,3]triazolo[4,5-b]pyridin-3-yloxy)-methylene]-dimethylammonium hexafluorophosphate), HPLC (High Performance Liquid Chromatography), i-PrOH (2-propanol), K2CO3 (potassium carbonate), LC (Liquid Chromatography), MeOH (methanol), MgSO4 (magnesium sulfate), MS (mass spectrometry), MTBE (Methyl tert-butyl ether), NaHCO3 (sodium bicarbonate), NaBH4 (sodium borohydride), NMM (N-methyl morpholine), NMR (Nuclear Magnetic Resonance), PyBOP (benzotriazole-1-yl-oxy-trispyrrolidino-phosphonium hexafluorophosphate), RT (room temperature), Rt (retention time), SPE (solid phase extraction), TBTU (2-(1-H-benzotriazole-1-yl)-1,1,3,3-tetramethyluromium tetrafluoro borate), TEA (triethylamine), TFA (trifluoroacetic acid), THF (tetrahydrofuran), TLC (Thin Layer Chromatography), UV (Ultraviolet). Description of the In Vitro Assays Abbreviations: GST=Glutathione-S-transferase FRET=Fluorescence resonance energy transfer HTRF®=(homogenous time resolved fluorescence) HEPES=4-(2-hydroxyethyl)-1-piperazine ethanesulfonic acid buffer DTT=Dithiothreitol BSA=bovine serum albumin CHAPS=detergent; CHAPS=3[(3-cholamidopropyl)dimethylammonio]-1-propanesulfonate Biochemical Activity Testing of Human Fatty Acid Synthase FASN
# Fatty acid synthase FASN is a multifunctional enzyme with seven catalytic activities thereby synthesising long chain fatty acids especially palmitoyl-CoA in the presence of co-factor NADPH starting from the substrates acetyl-CoA and malonyl-CoA. The reductive synthesis is realized by the oxidation of NADPH to NADP. Since NADPH has a high fluorescence intensity quantum yield compared to NADP with excitation at 340 nm and emission at 460 nm, the reaction can be monitored via the decrease in fluorescence intensity. The biochemical FASN activity testing was performed as 384 well two-time-point kinetic fluorescence intensity assay format in Greiner low volume medium binding 384-well black microtiter plates in a total assay volume of 8 μl and was used for high throughput screen. In each well 3 μl 40 nM human recombinant full-length fatty acid synthase (produced in-house in SF9 cells) were dispensed in the following assay buffer: 50 mM potassium phosphate buffer pH 7.0, 0.005% (w/v) BSA, 2 mM Glutathione, 0.02% Tween-20. Then 2 μl of 200 μM NADPH in assay buffer were added, followed by the addition of the test compounds in 10 dilution concentrations starting with 30 μM (final concentration) to get a final DMSO content of 1% (v/v). The mixture was incubated for at least 15 min at room temperature. After the pre-incubation the enzymatic reaction was started by the addition of 2 μl substrate solution (80 μM acetyl-CoA, 240 μM malonyl-CoA). A first fluorescence intensity measurement (time point one) was performed with an Envision multimode reader (Perkin Elmer LAS Germany GmbH) at excitation wavelength 340 nm (lamp mode) and emission wavelength 460 nm. The reaction was incubated for 30 minutes at room temperature. After this the fluorescence intensity was measured again in the Envision using the same parameters as described above (second time point measurement). The data were analysed by subtracting the first time point measurement value from the second time point measurement value (after the enzymatic reaction). The differences of the emission signals were determined. […]
# T1 sequence (P49327 whole entry): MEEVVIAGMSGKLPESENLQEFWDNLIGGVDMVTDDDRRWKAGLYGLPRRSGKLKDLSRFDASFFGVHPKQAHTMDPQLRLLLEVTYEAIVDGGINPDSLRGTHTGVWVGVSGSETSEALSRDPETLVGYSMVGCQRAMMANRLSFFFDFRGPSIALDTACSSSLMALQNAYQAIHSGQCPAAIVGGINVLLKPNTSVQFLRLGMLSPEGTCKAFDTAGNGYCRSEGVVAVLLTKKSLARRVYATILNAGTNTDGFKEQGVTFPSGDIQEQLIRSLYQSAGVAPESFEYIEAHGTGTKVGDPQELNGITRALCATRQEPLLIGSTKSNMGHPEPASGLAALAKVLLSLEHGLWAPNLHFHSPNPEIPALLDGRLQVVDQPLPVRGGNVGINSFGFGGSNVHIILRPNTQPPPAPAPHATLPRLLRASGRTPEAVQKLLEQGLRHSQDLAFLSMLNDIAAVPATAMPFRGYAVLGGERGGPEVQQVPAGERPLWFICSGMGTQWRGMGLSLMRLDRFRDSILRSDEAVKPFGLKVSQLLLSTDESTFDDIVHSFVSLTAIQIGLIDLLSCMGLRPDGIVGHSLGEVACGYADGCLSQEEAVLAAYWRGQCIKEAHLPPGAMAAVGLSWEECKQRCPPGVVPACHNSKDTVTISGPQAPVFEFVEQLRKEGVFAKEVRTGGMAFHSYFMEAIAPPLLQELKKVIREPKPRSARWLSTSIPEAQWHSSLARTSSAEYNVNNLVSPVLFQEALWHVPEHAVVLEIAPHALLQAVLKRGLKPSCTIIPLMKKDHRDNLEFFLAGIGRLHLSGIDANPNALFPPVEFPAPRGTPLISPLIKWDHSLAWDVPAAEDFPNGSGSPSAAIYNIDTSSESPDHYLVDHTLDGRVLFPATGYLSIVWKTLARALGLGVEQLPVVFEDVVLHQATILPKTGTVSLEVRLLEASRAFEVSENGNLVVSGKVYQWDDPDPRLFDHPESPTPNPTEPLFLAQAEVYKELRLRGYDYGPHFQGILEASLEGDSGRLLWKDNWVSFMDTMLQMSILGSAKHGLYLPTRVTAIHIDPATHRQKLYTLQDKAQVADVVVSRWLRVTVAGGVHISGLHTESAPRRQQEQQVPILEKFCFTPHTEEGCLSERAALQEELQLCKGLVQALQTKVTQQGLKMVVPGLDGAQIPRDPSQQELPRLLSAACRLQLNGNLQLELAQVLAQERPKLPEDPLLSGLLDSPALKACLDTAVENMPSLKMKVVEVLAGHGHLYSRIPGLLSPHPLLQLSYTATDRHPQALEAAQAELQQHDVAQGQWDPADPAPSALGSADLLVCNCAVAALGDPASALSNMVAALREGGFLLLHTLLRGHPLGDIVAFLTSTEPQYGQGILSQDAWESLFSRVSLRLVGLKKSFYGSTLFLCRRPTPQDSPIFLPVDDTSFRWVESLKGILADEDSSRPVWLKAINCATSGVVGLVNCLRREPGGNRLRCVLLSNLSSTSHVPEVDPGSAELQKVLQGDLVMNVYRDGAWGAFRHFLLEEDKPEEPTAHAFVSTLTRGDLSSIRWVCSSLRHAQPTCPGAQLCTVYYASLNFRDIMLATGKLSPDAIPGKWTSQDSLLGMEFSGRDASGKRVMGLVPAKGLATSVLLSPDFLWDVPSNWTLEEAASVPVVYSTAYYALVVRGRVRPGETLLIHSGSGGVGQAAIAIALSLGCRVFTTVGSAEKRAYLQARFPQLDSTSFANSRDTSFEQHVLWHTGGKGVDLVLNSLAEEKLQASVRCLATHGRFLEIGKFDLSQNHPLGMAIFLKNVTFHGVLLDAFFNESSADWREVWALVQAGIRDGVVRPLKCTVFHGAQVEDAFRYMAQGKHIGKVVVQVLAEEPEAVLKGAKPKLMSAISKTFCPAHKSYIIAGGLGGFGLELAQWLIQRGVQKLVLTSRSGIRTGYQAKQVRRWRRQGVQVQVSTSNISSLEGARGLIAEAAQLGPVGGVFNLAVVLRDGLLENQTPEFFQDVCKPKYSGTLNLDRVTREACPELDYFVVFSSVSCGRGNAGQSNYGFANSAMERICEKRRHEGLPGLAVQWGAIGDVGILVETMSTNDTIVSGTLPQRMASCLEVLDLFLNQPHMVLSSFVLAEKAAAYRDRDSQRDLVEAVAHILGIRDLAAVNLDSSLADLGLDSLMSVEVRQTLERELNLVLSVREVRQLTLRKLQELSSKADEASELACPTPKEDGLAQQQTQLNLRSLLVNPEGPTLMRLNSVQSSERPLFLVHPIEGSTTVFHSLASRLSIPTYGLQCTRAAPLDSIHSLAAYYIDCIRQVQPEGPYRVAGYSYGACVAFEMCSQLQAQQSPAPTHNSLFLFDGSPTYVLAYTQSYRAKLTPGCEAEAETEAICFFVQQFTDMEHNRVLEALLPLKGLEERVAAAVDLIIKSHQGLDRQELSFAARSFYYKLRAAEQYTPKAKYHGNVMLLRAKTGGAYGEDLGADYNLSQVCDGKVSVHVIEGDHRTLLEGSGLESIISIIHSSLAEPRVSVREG
row,Structure (SMILES),IC50
1,"CN(C(=O)c1ccc(-c2ccccc2)cc1)[C@@H]1CC[C@H](C(=O)NC2(C)CC2)C1 [Compound A67, biphenyl-4-carboxylic acid methyl-[(1R,3S)-3-(1-methyl-cyclopropylcarbamoyl)-cyclopentyl]-amide]",< 300 nM
2,"CCNC(=O)[C@H]1CC[C@@H](N(C)C(=O)c2ccc(-c3ccc(C#N)cc3)cc2)C1 [Compound A103, 4′-cyano-biphenyl-4-carboxylic acid ((1R,3S)-3-ethylcarbamoyl-cyclopentyl)-methyl-amide]",< 300 nM
3,"CCNC(=O)[C@H]1CC[C@@H](N(C)C(=O)c2ccc(-c3cccnc3)cc2)C1 [Compound A102, N-((1R,3S)-3-ethylcarbamoyl-cyclopentyl)-N-methyl-4-pyridin-3-yl-benzamide]",< 300 nM
4,"CCN(CC)C(=O)[C@H]1CC[C@@H](N(C)C(=O)c2ccc(-c3nc4ccccc4o3)cc2)C1 [Compound A48, 4-benzoxazol-2-yl-N-((1R,3S)-3-diethylcarbamoyl-cyclopentyl)-N-methyl-benzamide]",300 to 3000 nM
5,"CCN(C)C(=O)[C@H]1CC[C@@H](N(C)C(=O)c2ccc(-c3nc4ccccc4o3)cc2)C1 [Compound A47, 4-benzoxazol-2-yl-N-[(1R,3S)-3-(ethyl-methyl-carbamoyl)-cyclopentyl]-N-methyl-benzamide]",300 to 3000 nM
6,"CCNC(=O)[C@H]1CC[C@@H](N(C)C(=O)c2ccc(-c3ccccc3S(N)(=O)=O)cc2)C1 [Compound A61, 2′-sulfamoyl-biphenyl-4-carboxylic acid ((1R,3S)-3-ethylcarbamoyl-cyclopentyl)-methyl-amide]",< 300 nM
7,"CCNC(=O)[C@H]1CC[C@@H](N(C)C(=O)c2ccc(-c3nnc(OC)cc3C)cc2)C1 [Compound A52, N-((1R,3S)-3-ethylcarbamoyl-cyclopentyl)-4-(6-methoxy-4-methyl-pyridazin-3-yl)-N-methyl-benzamide]",3000 to 50000 nM
8,"CCCC1(NC(=O)[C@H]2CC[C@@H](N(C)C(=O)c3ccc(-c4nc5ccccc5o4)cc3)C2)CC1 [Compound A73, 4-benzoxazol-2-yl-N-methyl-N-[(1R,3S)-3-(1-propyl-cyclopropylcarbamoyl)-cyclopentyl]-benzamide]",300 to 3000 nM
9,"CCNC(=O)[C@H]1CC[C@@H](N(C)C(=O)c2ccc(-c3ccccc3S(=O)(=O)NC(C)(C)C)cc2)C1 [Compound A60, 2′-tert-butylsulfamoyl-biphenyl-4-carboxylic acid ((1R,3S)-3-ethylcarbamoyl-cyclopentyl)-methyl-amide]",3000 to 50000 nM
10,"CCNC(=O)[C@H]1CC[C@@H](N(C)C(=O)c2ccc(-c3ccccc3)cn2)C1 [Compound A53, 5-phenyl-pyridine-2-carboxylic acid ((1R,3S)-3-ethylcarbamoyl-cyclopentyl)-methyl-amide]",< 300 nM
11,"CCNC(=O)[C@H]1CC[C@@H](N(C)C(=O)c2ccc(C#Cc3ccc(F)cc3)cc2)C1 [Compound A55, N-((1R,3S)-3-ethylcarbamoyl-cyclopentyl)-4-(4-fluoro-phenylethynyl)-N-methyl-benzamide]",< 300 nM
12,"CN(C(=O)c1ccc(-c2nc3ccccc3o2)cc1)[C@@H]1CC[C@H](C(=O)NC2CC2)C1 [Compound A6, 4-benzoxazol-2-yl-N-((1R,3S)-3-cyclopropylcarbamoyl-cyclopentyl)-N-methyl-benzamide]",< 300 nM
13,"CCNC(=O)[C@H]1CC[C@@H](N(C)C(=O)c2ccc(-c3nc4ccccc4[nH]3)cc2)C1 [Compound A11, 4-(1H-benzimidazol-2-yl)-N-[(1R,3S)-3-(ethylcarbamoyl)cyclopentyl]-N-methyl-benzamide]",< 300 nM
14,"CCNC(=O)[C@H]1CC[C@@H](N(C)C(=O)c2c(F)cc(-c3ccc(CC)cc3)cc2F)C1 [Compound A58, 4′-ethyl-3,5-difluoro-biphenyl-4-carboxylic acid ((1R,3S)-3-ethylcarbamoyl-cyclopentyl)-methyl-amide]",< 300 nM
15,"CC[C@H](C)NC(=O)[C@H]1CC[C@@H](N(C)C(=O)c2ccc(-c3nc4ccccc4o3)cc2)C1 [Compound A74, 4-(1,3-benzoxazol-2-yl)-N-methyl-N-[(1R,3S)-3-[[(1S)-1-methylpropyl]-carbamoyl]cyclopentyl]benzamide]",< 300 nM
16,"CCNC(=O)[C@H]1CC[C@@H](N(C)C(=O)c2ccc(-c3ccc(C)cc3)cc2)C1 [Compound A49, 4′-methyl-biphenyl-4-carboxylic acid ((1R,3S)-3-ethylcarbamoyl-cyclopentyl)-methyl-amide]",< 300 nM
17,"CCNC(=O)[C@H]1CC[C@@H](N(C)C(=O)c2ccc(-c3ccncc3)cc2)C1 [Compound A56, N-((1R,3S)-3-ethylcarbamoyl-cyclopentyl)-N-methyl-4-pyridin-4-yl-benzamide]",< 300 nM
18,"CN(C(=O)c1ccc(-c2nc3ccccc3o2)cc1)[C@@H]1CC[C@H](C(=O)NC2CCCC2)C1 [Compound A7, 4-benzoxazol-2-yl-N-((1R,3S)-3-cyclopentylcarbamoyl-cyclopentyl)-N-methyl-benzamide]",< 300 nM
19,"CN(C(=O)c1ccc(-c2nc3ccccc3o2)cc1)[C@@H]1CC[C@H](C(=O)N[C@H]2C[C@H](O)C2)C1 [Compound A77, 4-(1,3-benzoxazol-2-yl)-N-[(1R,3S)-3-[(trans-3-hydroxycyclobutyl)-carbamoyl]cyclopentyl]-N-methyl-benzamide]",< 300 nM
20,"CCNC(=O)[C@H]1CC[C@@H](N(C)C(=O)c2ccc(-c3ccc(O[C@@H]4CCOC4)cc3)cc2)C1 [Compound A4, 4′-[(R)-(tetrahydro-furan-3-yl)oxy]-biphenyl-4-carboxylic acid ((1R,3S)-3-ethylcarbamoyl-cyclopentyl)-methyl-amide]",300 to 3000 nM
21,"CCNC(=O)C1CC[C@@H](N(C)C(=O)c2ccc(-c3nc4cccc(F)c4o3)cc2)C1 (stereo in doubt) [Compound A100, N-((1R,3S)-3-ethylcarbamoyl-cyclopentyl)-4-(7-fluoro-benzooxazol-2-yl)-N-methyl-benzamide]",< 300 nM
22,"CCNC(=O)[C@H]1CC[C@@H](N(C)C(=O)c2ccc(-c3ccccc3C)c(C)c2)C1 [Compound A65, 2,2′-dimethyl-biphenyl-4-carboxylic acid ((1R,3S)-3-ethylcarbamoyl-cyclopentyl)-methyl-amide]",< 300 nM
23,"CN(C(=O)c1ccc(-c2nc3ccccc3o2)cc1)[C@@H]1CC[C@H](C(N)=O)C1 [Compound A86, 4-benzoxazol-2-yl-N-((1R,3S)-3-carbamoyl-cyclopentyl)-N-methyl-benzamide]",300 to 3000 nM
24,"CN(C(=O)c1ccc(-c2nc3ccccc3o2)cc1)[C@@H]1CC[C@H](C(=O)NC2(C)CC2)C1 [Compound A68, 4-benzoxazol-2-yl-N-methyl-N-[(1R,3S)-3-(1-methyl-cyclopropylcarbamoyl)-cyclopentyl]-benzamide]",< 300 nM
25,"CCNC(=O)[C@H]1CC[C@@H](N(C)C(=O)c2ccc(-c3noc(C)n3)cc2)C1 [Compound A88, N-((1R,3S)-3-ethylcarbamoyl-cyclopentyl)-N-methyl-4-(5-methyl-[1,2,4]oxadiazol-3-yl)-benzamide]",3000 to 50000 nM
26,"CCNC(=O)[C@H]1CC[C@@H](N(C)C(=O)c2ccc(-c3ccccc3C(F)(F)F)cc2)C1 [Compound A64, 2′-trifluoromethyl-biphenyl-4-carboxylic acid ((1R,3S)-3-ethylcarbamoyl-cyclopentyl)-methyl-amide]",< 300 nM
